From patent publication US20250339443A1, “METHOD FOR TREATING OR PREVENTING CALCIUM RELEASE-ACTIVATED CALCIUM CHANNEL OR DISCOIDIN DOMAIN RECEPTOR 2 RELATED DISORDERS OR CONDITIONS” (LumiSTAR Biotechnology, Inc., priority 2023, published 2025)

Test system: obstruction-induced persistent progression of renal fibrosis
Test: Reversible unilateral ureteral obstruction (RUUO) model
Assay type: in vivo, mouse
Source text: FIG. 6A illustrates a diagram depicting the timeline of operations and drug delivery. The left ureter was surgically ligated (UUO-L) for 7 days, after which it was re-connected to the bladder (RUUO-L). Various compounds, including DMSO (control), WRG-28, and Av, were intraperitoneally injected daily during ureter ligation (UUO-L) period. After following RUUO-L for an additional 13 days, the right ureter was ligated (UUO-R). Subsequently, mice were housed in metabolic cages on the day after surgery (day 21). On day 22, the left kidneys were removed for further analysis to evaluate kidney function. […] FIG. 6C illustrates the measurement of the Sirius red-positive area in each group, conducted by using Image J from 5-10 images. The protein levels of integrin β1, collagen 1a1, DDR2, α-SMA, E-cadherin, SGLT2, NHE1, and β-actin were assessed in mice treated with WRG-28 (FIG. 6D) and Av (FIG. 6F) using Western blot analysis. Relative protein levels were quantified using Image J (FIG. 6E and FIG. 6G). Each bar represents mean±SEM. In all the graphs, *, **, and *** denote p-values of <0.05, 0.01, and 0.001, respectively.
The left ureter was surgically ligated (UUO-L) for 7 days, after which it was re-connected to the bladder (RUUO-L). Various compounds, including DMSO (control), WRG-28, and Av were intraperitoneally injected for 13 days after the release of left ureter ligation (during RUUO-L period). After 13 days of RUUO-L, the right ureter was ligated (UUO-R). Subsequently, the mice were housed in metabolic cages on the following day of surgery (day 21). On day 22, the left kidneys were removed for further analysis. […] FIG. 7C illustrates the measurement of the Sirius red-positive area in each group using Image J from 5-10 images. The protein levels of integrin β1, collagen 1a1, DDR2, […] were assessed in mice treated with WRG-28 (FIG. 7D) and Av (FIG. 7F) using Western blot analysis. The relative protein levels were measured and quantified using Image J (FIG. 7E and FIG. 7G). Each bar represents the mean±SEM. In all the graphs, *, **, and *** denote p-values of <0.05, 0.01, and 0.001, respectively. NS denotes a p-value >0.05, indicating no significant difference between the two groups.
FIG. 8A, FIG. 8B, FIG. 8C, FIG. 8D, FIG. 8E, FIG. 8F, FIG. 8G, and FIG. 8H illustrate how WRG-28 and Av restore epithelial differentiation and reduce collagen deposition and myofibroblast expansion in RUUO-induced persistent progression of renal fibrosis. The frozen tissue blocks were utilized for immunofluorescence staining. […] Laminin alpha 1 and collagen 1a1 were detected using primary antibodies, followed by secondary antibodies conjugated with Alexa-488 (green) and Alexa-594 (red), respectively. Hoechst 33258 (blue) was used for labeling nuclei. FIG. 8A-(ii) illustrates the fluorescent intensity of collagen 1a1 measured using Image J. Analysis was conducted on 5-10 areas from each of the 5 pictures, with each bar representing the mean±SEM. In FIG. 8A-(i), the thickness of laminin alpha 1 was measured using Image J by analyzing 5-10 areas from each of the 5-10 pictures. The median is marked by a solid line, while the quartiles are indicated by dotted lines. […] FIG. 8B-(iii) illustrates the fluorescent intensity of α-SMA, measured using Image J. Quantification was conducted on at least 5 areas from each of the 5 pictures, with each bar representing the mean±SEM. […] Additionally, Hoechst 33258 (blue) was used for labeling nuclei. FIG. 8C-(iv) illustrates the quantification of apical membrane expression of SGLT2 in SGLT2 positive cells for each condition. Analysis was conducted on at least 5 pictures from each condition, with each bar representing the mean±SEM. […] Hoechst 33258 (blue) was used to label nuclei. The expressions of DDR2 (FIG. 8D-(v)) and AQP1 (FIG. 8D-(vi)) were analyzed and quantified based on 5-8 pictures from each condition. Each bar in the figures represents the mean±SEM. […]

[1] = serum, compared to DMSO-treated mice, 7*/15d or 7/15*d
[2] = treated after release of obstruction (7/15*d), Western blot
[3] = treated after the obstruction was released (7/15*d)
[4] = treated during obstruction (7*/15d)
[5] = treated during obstruction (7*/15d), Western blot

## CCNS(=O)(=O)c1ccc(COc2ccc3nc4ccc(=O)cc-4oc3c2)cc1 [WRG-28]
RUUO, compared to the DMSO-treated group
  expression of DDR2 (immunofluorescence): reduced
RUUO, immunofluorescence
  apical membrane expression of SGLT-2: reversed
  atrophic tubules: fewer
RUUO, vs DMSO treated group
  accumulation of collagen 1a1 (immunofluorescence): mitigated
  expression of α-SMA (immunofluorescence): markedly reduced
[1]
  level of BUN: significantly reduced
  level of CRE: significantly reduced
Treated 7 days during ureter obstruction (7*/15d)
  kidney histology (H&E): preserved the intact tubular structure
Treated 13 days after release of obstruction (7/15*d)
  kidney histology (H&E) compared to DMSO-treated mice: numerous intact tubular structures, less inflammation and scar tissue
Treated after release of obstruction (7/15*d)
  collagen-positive area (Sirius red): reduced
[2]
  downregulation of epithelial marker proteins, E-cadherin, SGLT2 and NHE1: only partially reversed
  obstruction-induced upregulation of integrin β1, DDR2, collagen 1a1, and α-SMA: alleviated
[3]
  number of apoptotic cells (TUNEL-positive cells): significantly reduced
  numbers of proliferating tubular cells (Ki67-positive cells): increased
[4]
  expansion of the fibrotic area (collagen-positive area, Sirius red): significantly reduced
  numbers of proliferating tubular cells (Ki67-positive): did not significantly differ
  proliferating interstitial cells (Ki67): more proliferating interstitial cells in DMSO treated mice
[5]
  expression of epithelial markers (E-cadherin, SGLT2, NHE1): significant increase
  expression of mesenchymal marker proteins (integrin β1, DDR2, collagen 1a1, α-SMA): significantly reduced
Treated during obstruction, obstruction released for 15 days (7*/15d)
  apoptotic (TUNEL-positive) tubular cells: only a few
Treated during the obstruction (7*/15d) or after its release (7/15*d), immunofluorescence
  width of the basement membrane (laminin alpha 1 thickness): uniform and unchanging width
